According to US10508104B2, “6-hydroxy-5-(phenyl/heteroarylsulfonyl)pyrimidin-4(1H)-one as APJ agonists” (Bristol-Myers Squibb Company, priority 2016, dated 2019):

Molecular target: human APJ receptor (Homo sapiens (Human), UniProt P35414)
Test: Intracellular cAMP accumulation assay (APJ hcAMP, HTRF)
Assay type: cell-based
Settings: human APJ, cAMP accumulation; read-out: Human APJ cAMP EC50 Potency range
In short: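 HEK293 cells stably expressing human APJ, 5,000 per well, incubated 30 min at rt with compound, […] and 2 μM forskolin. cAMP measured by HTRF against a cAMP standard curve as inhibition of forskolin-driven production. EC50 from variable-slope sigmoidal fit.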

human APJ receptor, sequence (P35414 whole entry): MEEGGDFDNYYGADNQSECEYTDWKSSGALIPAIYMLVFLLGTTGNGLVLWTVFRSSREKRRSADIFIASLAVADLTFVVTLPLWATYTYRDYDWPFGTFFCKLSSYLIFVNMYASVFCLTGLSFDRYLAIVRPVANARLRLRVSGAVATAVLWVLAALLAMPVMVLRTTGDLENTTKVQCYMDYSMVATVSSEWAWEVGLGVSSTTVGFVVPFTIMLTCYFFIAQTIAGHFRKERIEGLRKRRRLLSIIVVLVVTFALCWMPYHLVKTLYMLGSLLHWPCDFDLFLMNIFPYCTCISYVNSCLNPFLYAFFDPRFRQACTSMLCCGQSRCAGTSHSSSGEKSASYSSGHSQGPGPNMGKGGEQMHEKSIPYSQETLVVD

EC50 | SMILES
0.01 to 10 nM | CCCCc1nc(=O)c(S(=O)(=O)c2ccc(-c3cncc(F)c3)cc2)c(O)n1[C@@H](CC)c1cccc(F)c1 [Example 214, 2-butyl-1-[(1S)-1-(3-fluorophenyl)propyl]-5-[4-(5-fluoropyridin-3-yl)benzenesulfonyl]-6-hydroxy-1,4-dihydropyrimidin-4-one]
0.01 to 10 nM | CCCCc1nc(=O)c(S(=O)(=O)c2ccc(-c3cccnc3C)cc2)c(O)n1[C@@H](CC)c1ccc2c(c1)OCO2 [Example 215, 1-[(1S)-1-(2H-1,3-benzodioxol-5-yl)propyl]-2-butyl-6-hydroxy-5-[4-(2-methylpyridin-3-yl)benzenesulfonyl]-1,4-dihydropyrimidin-4-one]
0.01 to 10 nM | CCCCc1nc(O)c(S(=O)(=O)c2ccc(Br)cc2)c(=O)n1[C@@H](CC)c1cccc(F)c1 [Example 216, 5-(4-bromobenzenesulfonyl)-2-butyl-3-[(1S)-1-(3-fluorophenyl)propyl]-6-hydroxy-3,4-dihydropyrimidin-4-one]
0.01 to 10 nM | CCCCc1nc(=O)c(S(=O)(=O)c2ccc(-c3ccnc(F)c3C)cc2)c(O)n1[C@@H](CC)c1cccc(F)c1 [Example 217, 2-butyl-5-[4-(2-fluoro-3-methylpyridin-4-yl)benzenesulfonyl]-1-[(1S)-1-(3-fluorophenyl)propyl]-6-hydroxy-1,4-dihydropyrimidin-4-one]
0.01 to 10 nM | CCCCc1nc(=O)c(S(=O)(=O)c2ccc(-c3cncc(F)c3)cc2)c(O)n1[C@@H](CC)c1ccc2c(c1)OCO2 [Example 218, 1-[(1S)-1-(2H-1,3-benzodioxol-5-yl)propyl]-2-butyl-5-[4-(5-fluoropyridin-3-yl)benzenesulfonyl]-6-hydroxy-1,4-dihydropyrimidin-4-one]
0.01 to 10 nM | CCCCc1nc(O)c(S(=O)(=O)c2ccc(Br)cc2)c(=O)n1[C@@H](CC)c1ccc2c(c1)OCO2 [Example 219, 3-[(1S)-1-(2H-1,3-benzodioxol-5-yl)propyl]-5-(4-bromobenzenesulfonyl)-2-butyl-6-hydroxy-3,4-dihydropyrimidin-4-one]
0.01 to 10 nM | CCCCc1nc(=O)c(S(=O)(=O)c2ccc(-c3ccc(F)nc3C)cc2)c(O)n1[C@@H](CC)c1ccc2c(c1)OCO2 [Example 220, 1-[(1S)-1-(2H-1,3-benzodioxol-5-yl)propyl]-2-butyl-5-[4-(6-fluoro-2-methylpyridin-3-yl)benzenesulfonyl]-6-hydroxy-1,4-dihydropyrimidin-4-one]
0.01 to 10 nM | CCCCc1nc(=O)c(S(=O)(=O)c2ccc(-c3cccnc3C)cc2)c(O)n1[C@H]1CCCc2ccccc21 [Example 221, 2-butyl-6-hydroxy-5-[4-(2-methylpyridin-3-yl)benzenesulfonyl]-1-[(1S)-1,2,3,4-tetrahydronaphthalen-1-yl]-1,4-dihydropyrimidin-4-one]
0.01 to 10 nM | CCCCc1nc(=O)c(S(=O)(=O)c2ccc(-c3cncc(F)c3)cc2)c(O)n1[C@H]1CCCc2ccccc21 [Example 222, 2-butyl-5-[4-(5-fluoropyridin-3-yl)benzenesulfonyl]-6-hydroxy-1-[(1S)-1,2,3,4-tetrahydronaphthalen-1-yl]-1,4 dihydropyrimidin-4-one]
0.01 to 10 nM | CCCCc1nc(O)c(S(=O)(=O)c2ccc(Br)cc2)c(=O)n1[C@@H](CC)c1cccc(C#N)c1 [Example 223, 3-[(1S)-1-[5-(4-bromobenzenesulfonyl)-2-butyl-4-hydroxy-6-oxo-1,6-dihydropyrimidin-1-yl]propyl]benzonitrile]
0.01 to 10 nM | CCCCc1nc(=O)c(S(=O)(=O)c2ccc(-c3ccncc3C)cc2)c(O)n1[C@H]1CCCc2ccccc21 [Example 224, 2-butyl-6-hydroxy-5-[4-(3-methylpyridin-4-yl)benzenesulfonyl]-1-[(1S)-1,2,3,4-tetrahydronaphthalen-1-yl]-1,4-dihydropyrimidin-4-one]
0.01 to 10 nM | CCCCc1nc(=O)c(S(=O)(=O)c2ccc(-c3cncc(F)c3)cc2)c(O)n1[C@@H](CC)c1cccc(C#N)c1 [Example 225, 3-[(1S)-1-{2-butyl-5-[4-(5-fluoropyridin-3-yl)benzenesulfonyl]-6-hydroxy-4-oxo-1,4-dihydropyrimidin-1-yl}propyl]benzonitrile]
0.01 to 10 nM | CCCCc1nc(=O)c(S(=O)(=O)c2ccc(-c3ccc(F)nc3C)cc2)c(O)n1[C@@H](CC)c1cccc(C#N)c1 [Example 226, 3-[(1S)-1-{2-butyl-5-[4-(6-fluoro-2-methylpyridin-3-yl)benzenesulfonyl]-6-hydroxy-4-oxo-1,4-dihydropyrimidin-1-yl}propyl]benzonitrile]
0.01 to 10 nM | CCCCc1nc(=O)c(S(=O)(=O)c2ccc(-c3cccnc3C)cc2)c(O)n1[C@@H](C)c1ccc(OC)cc1 [Example 227]
0.01 to 10 nM | CCCCc1nc(=O)c(S(=O)(=O)c2ccc(-c3ccncc3C)cc2)c(O)n1[C@@H](C)c1ccccc1OC [Example 228, 2-butyl-6-hydroxy-1-[(1S)-1-(2-methoxyphenyl)ethyl]-5-[4-(3-methylpyridin-4-yl)benzenesulfonyl]-1,4-dihydropyrimidin-4-one]
0.01 to 10 nM | CCCCc1nc(=O)c(S(=O)(=O)c2ccc(-c3ccncc3C)cc2)c(O)n1[C@@H](CC)c1cccc(C#N)c1 [Example 229, 3-[(1S)-1-{2-butyl-6-hydroxy-5-[4-(3-methylpyridin-4-yl)benzenesulfonyl]-4-oxo-1,4-dihydropyrimidin-1-yl}propyl]benzonitrile]
0.01 to 10 nM | CCCCc1nc(=O)c(S(=O)(=O)c2ccc(-c3ccnc(F)c3C)cc2)c(O)n1[C@@H](CC)c1cccc(C#N)c1 [Example 230, 3-[(1S)-1-{2-butyl-5-[4-(2-fluoro-3-methylpyridin-4-yl)benzenesulfonyl]-6-hydroxy-4-oxo-1,4-dihydropyrimidin-1-yl}propyl]benzonitrile]
0.01 to 10 nM | CCCCc1nc(=O)c(S(=O)(=O)c2ccc(-c3cccnc3C)cc2)c(O)n1[C@@H](C)c1ccccc1OC [Example 231, 2-butyl-6-hydroxy-1-[(1S)-1-(2-methoxyphenyl)ethyl]-5-[4-(2-methylpyridin-3-yl)benzenesulfonyl]-1,4-dihydropyrimidin-4-one]
0.01 to 10 nM | CCCCc1nc(=O)c(S(=O)(=O)c2ccc(-c3cncc(F)c3)cc2)c(O)n1[C@@H](C)c1ccccc1OC [Example 232, 2-butyl-5-[4-(5-fluoropyridin-3-yl)benzenesulfonyl]-6-hydroxy-1-[(1S)-1-(2-methoxyphenyl)ethyl]-1,4-dihydropyrimidin-4-one]
0.01 to 10 nM | CCCCc1nc(=O)c(S(=O)(=O)c2ccc(-c3ccc(F)nc3C)cc2)c(O)n1[C@@H](C)c1ccc(OC)cc1 [Example 233, 2-butyl-5-[4-(6-fluoro-2-methylpyridin-3-yl)benzenesulfonyl]-6-hydroxy-1-[(1S)-1-(4-methoxyphenyl)ethyl]-1,4-dihydropyrimidin-4-one]
0.01 to 10 nM | CCCCc1nc(=O)c(S(=O)(=O)c2ccc(-c3cccnc3C)cc2)c(O)n1[C@@H](CC)c1cccc(C#N)c1 [Example 234, 3-[(1S)-1-{2-butyl-6-hydroxy-5-[4-(2-methylpyridin-3-yl)benzenesulfonyl]-4-oxo-1,4-dihydropyrimidin-1-yl}propyl]benzonitrile]
10 to 100 nM | CCCCc1nc(O)c(S(=O)(=O)c2ccc(Br)cc2)c(=O)n1[C@H]1CCCc2ccccc21 [Example 235, 5-(4-bromobenzenesulfonyl)-2-butyl-6-hydroxy-3-[(1S)-1,2,3,4-tetrahydronaphthalen-1-yl]-3,4-dihydropyrimidin-4-one]
0.01 to 10 nM | CCCCc1nc(=O)c(S(=O)(=O)c2ccc(-c3ccncc3C)cc2)c(O)n1[C@@H](C)c1ccc(OC)cc1 [Example 236, 2-butyl-6-hydroxy-1-[(1S)-1-(4-methoxyphenyl)ethyl]-5-[4-(3-methylpyridin-4-yl)benzenesulfonyl]-1,4-dihydropyrimidin-4-one]
0.01 to 10 nM | CCCCc1nc(=O)c(S(=O)(=O)c2ccc(-c3ccc(F)nc3C)cc2)c(O)n1[C@H]1CCCc2ccccc21 [Example 237, 2-butyl-5-[4-(6-fluoro-2-methylpyridin-3-yl)benzenesulfonyl]-6-hydroxy-1-[(1S)-1,2,3,4-tetrahydronaphthalen-1-yl]-1,4-dihydropyrimidin-4-one]

Same assay, conditions: human APJ, intracellular cAMP accumulation; read-out: Human APJ cAMP EC50 Potency range

EC50 | SMILES
0.01 to 10 nM | CC[C@@H](c1ccccc1)n1c(CCC(C)C)nc(=O)c(S(=O)(=O)c2ccc(-c3ccncc3C)cc2)c1O [Example 209, 6-hydroxy-2-(3-methylbutyl)-5-[4-(3-methylpyridin-4-yl)benzenesulfonyl]-1-[(1S)-1-phenylpropyl]-1,4-dihydropyrimidin-4-one]
0.01 to 10 nM | CCCCc1nc(=O)c(S(=O)(=O)c2ccc(-c3ccncc3C)cc2)c(O)n1[C@H](C)c1ccc(OC)cc1 [Example 210, 2-butyl-6-hydroxy-1-[(1R)-1-(4-methoxyphenyl)ethyl]-5-[4-(3-methylpyridin-4-yl)benzenesulfonyl]-1,4-dihydropyrimidin-4-one]
0.01 to 10 nM | CCCCc1nc(=O)c(S(=O)(=O)c2ccc(-c3ccnc(F)c3C)cc2)c(O)n1[C@@H](CC)c1ccc2c(c1)OCO2 [Example 211, 1-[(1S)-1-(2H-1,3-benzodioxol-5-yl)propyl]-2-butyl-5-[4-(2-fluoro-3-methylpyridin-4-yl)benzenesulfonyl]-6-hydroxy-1,4-dihydropyrimidin-4-one]
0.01 to 10 nM | CCCCc1nc(=O)c(S(=O)(=O)c2ccc(-c3ccncc3C)cc2)c(O)n1[C@@H](CC)c1cccc(F)c1 [Example 212, 2-butyl-1-[(1S)-1-(3-fluorophenyl)propyl]-6-hydroxy-5-[4-(3-methylpyridin-4-yl)benzenesulfonyl]-1,4-dihydropyrimidin-4-one]
0.01 to 10 nM | CCCCc1nc(=O)c(S(=O)(=O)c2ccc(-c3cccnc3C)cc2)c(O)n1[C@@H](CC)c1cccc(F)c1 [Example 213, 2-butyl-1-[(1S)-1-(3-fluorophenyl)propyl]-6-hydroxy-5-[4-(2-methylpyridin-3-yl)benzenesulfonyl]-1,4-dihydropyrimidin-4-one]
